Assay results taken from ChEMBL document CHEMBL1201862, “PubChem BioAssay data set” (2004).
One block for each compound: values may come before it. Activity calls are given as the source filed them.

Tests used:
[1] = biological target: T1, Tyrosine-protein phosphatase non-receptor type 7 (Homo sapiens, UniProt P35236); assay: HePTP (PTPN7) phosphatase inhibitor potency, SAR follow-up, biochemical, set 2 (AID 449736); format: functional
T1 sequence (P35236 whole entry): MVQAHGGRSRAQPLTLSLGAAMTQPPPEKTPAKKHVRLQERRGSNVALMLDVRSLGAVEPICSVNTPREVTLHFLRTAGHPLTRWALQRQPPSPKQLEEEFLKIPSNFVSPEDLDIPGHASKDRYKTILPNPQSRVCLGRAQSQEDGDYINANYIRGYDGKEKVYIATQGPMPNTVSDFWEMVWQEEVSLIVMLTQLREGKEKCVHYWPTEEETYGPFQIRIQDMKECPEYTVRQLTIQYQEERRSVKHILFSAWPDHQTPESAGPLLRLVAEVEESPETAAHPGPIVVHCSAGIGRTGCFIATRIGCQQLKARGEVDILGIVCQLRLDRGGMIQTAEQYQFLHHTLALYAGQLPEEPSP

CHO-K1 = assay: (§1) Counterscreen for antagonists of the orexin 1 receptor (OX1R; HCRTR1): Homogeneous time resolved fluorescence (HTRF)-based cell-based dose response assay to identify antagonists of the parental CHO-K1 cell line. [Related pubchem assays (depositor defined):AID434989, AID435008, AID463079, AID485270, AID492963, AID492964, AID492965, AID493232, AID504699, AID504701]; format: functional; details: Cricetulus griseus
[2] = as §1, with “Fluorescence-based” for “Homogeneous time resolved fluorescence (HTRF)-based”, “cell-based high throughput” for “cell-based”, “CHO” for “CHO-K1”; format: functional
[3] = biological target: T2, Orexin/Hypocretin receptor type 1 (Homo sapiens, UniProt O43613); assay: Homogeneous Time Resolved Fluorescence (HTRF)-based cell-based high throughput dose response assay for antagonists of the orexin 1 receptor (OX1R; HCRTR1). [Related pubchem assays (depositor defined):AID434989, AID435008, AID463079, AID485270, AID492963, AID492964, AID492965, AID493232, AID504717, AID504718]; format: functional
T2 sequence (O43613 whole entry): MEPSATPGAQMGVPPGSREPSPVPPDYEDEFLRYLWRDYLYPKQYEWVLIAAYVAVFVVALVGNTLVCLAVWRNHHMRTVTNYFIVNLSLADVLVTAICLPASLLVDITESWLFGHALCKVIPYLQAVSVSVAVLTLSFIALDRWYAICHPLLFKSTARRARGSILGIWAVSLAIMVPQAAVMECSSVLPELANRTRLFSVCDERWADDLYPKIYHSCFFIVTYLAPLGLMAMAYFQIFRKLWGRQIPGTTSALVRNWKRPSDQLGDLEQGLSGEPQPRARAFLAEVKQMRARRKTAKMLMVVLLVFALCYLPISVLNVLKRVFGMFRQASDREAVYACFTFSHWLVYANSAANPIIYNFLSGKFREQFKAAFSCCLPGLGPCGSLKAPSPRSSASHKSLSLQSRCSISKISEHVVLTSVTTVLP

[4] = biological target: T2, Orexin/Hypocretin receptor type 1; assay: Fluorescence-based cell-based high throughput dose response assay for antagonists of the orexin 1 receptor (OX1R; HCRTR1). [Related pubchem assays (depositor defined):AID434989, AID435008, AID463079, AID485270, AID492963, AID492964, AID492965, AID493232, AID504717, AID504718]; format: functional
[5] = biological target: Voltage-dependent T-type calcium channel subunit alpha-1H (Homo sapiens, UniProt O95180); assay: Cav3.2 T-type channel inhibitors, synthesized analogs, SAR follow-up, cell-based, synthetic library set 2, HEK293 HH8, Fluo-4 (AID 493023); format: functional
Sequence of Voltage-dependent T-type calcium channel subunit alpha-1H (O95180 whole entry): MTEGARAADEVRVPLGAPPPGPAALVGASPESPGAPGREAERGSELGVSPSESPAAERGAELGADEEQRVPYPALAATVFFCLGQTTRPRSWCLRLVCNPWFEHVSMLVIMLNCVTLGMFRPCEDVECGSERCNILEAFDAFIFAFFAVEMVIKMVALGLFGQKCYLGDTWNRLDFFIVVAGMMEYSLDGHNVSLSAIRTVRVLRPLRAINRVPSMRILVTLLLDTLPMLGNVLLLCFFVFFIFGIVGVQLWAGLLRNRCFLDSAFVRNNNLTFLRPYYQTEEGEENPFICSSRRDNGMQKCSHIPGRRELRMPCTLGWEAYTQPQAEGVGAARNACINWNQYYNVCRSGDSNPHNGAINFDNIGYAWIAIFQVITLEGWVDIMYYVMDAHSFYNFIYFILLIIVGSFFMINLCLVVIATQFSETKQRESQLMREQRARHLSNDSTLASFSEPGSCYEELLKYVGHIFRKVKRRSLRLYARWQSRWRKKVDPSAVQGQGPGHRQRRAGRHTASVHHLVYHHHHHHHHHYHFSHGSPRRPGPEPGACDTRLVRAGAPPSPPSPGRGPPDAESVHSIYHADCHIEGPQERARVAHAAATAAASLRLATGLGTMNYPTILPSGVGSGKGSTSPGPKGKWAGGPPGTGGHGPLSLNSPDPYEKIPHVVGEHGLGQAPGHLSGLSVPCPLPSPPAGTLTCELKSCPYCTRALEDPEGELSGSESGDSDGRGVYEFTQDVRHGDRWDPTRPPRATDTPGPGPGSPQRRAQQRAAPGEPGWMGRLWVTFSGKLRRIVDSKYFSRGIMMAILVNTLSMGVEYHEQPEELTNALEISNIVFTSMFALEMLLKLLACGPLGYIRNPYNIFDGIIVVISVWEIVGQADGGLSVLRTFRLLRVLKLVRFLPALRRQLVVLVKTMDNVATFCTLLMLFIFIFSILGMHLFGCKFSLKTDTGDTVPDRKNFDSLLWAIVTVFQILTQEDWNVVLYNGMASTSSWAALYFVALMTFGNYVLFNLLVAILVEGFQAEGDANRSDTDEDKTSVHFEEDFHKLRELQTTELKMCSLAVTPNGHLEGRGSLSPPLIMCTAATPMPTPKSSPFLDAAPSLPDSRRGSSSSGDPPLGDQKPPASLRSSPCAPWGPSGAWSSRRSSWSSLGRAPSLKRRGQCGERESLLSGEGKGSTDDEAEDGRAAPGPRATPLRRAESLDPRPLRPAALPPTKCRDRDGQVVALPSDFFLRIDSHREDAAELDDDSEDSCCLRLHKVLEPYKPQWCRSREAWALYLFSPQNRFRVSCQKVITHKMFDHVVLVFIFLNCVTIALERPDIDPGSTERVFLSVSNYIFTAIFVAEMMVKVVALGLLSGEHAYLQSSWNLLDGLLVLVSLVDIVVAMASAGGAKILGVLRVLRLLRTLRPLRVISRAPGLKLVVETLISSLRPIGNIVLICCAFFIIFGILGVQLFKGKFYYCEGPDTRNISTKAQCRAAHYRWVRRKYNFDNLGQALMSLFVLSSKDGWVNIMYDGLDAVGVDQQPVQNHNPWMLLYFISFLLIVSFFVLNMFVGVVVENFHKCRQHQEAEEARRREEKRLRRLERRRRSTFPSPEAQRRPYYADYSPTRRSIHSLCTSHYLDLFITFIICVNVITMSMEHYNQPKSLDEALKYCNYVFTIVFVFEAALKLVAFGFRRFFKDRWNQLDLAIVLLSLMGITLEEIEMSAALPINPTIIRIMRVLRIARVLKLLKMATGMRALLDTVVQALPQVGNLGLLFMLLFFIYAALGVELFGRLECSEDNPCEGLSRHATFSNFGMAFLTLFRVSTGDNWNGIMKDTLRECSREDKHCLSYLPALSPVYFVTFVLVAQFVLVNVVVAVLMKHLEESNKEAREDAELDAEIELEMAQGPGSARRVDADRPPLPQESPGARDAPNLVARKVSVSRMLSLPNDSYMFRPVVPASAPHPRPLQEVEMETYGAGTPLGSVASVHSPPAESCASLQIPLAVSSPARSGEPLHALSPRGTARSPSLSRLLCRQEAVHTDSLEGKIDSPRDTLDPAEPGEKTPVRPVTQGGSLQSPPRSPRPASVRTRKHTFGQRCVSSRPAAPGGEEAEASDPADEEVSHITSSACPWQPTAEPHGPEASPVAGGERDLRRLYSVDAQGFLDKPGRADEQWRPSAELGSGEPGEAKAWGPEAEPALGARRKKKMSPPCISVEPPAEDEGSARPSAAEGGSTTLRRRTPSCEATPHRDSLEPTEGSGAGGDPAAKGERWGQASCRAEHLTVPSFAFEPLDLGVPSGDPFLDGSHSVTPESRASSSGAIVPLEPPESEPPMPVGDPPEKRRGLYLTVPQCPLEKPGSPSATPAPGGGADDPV

CAAX prenyl protease 2 = biological target: T3, CAAX prenyl protease 2 (Saccharomyces cerevisiae S288c, UniProt Q03530); format: biochemical
T3 sequence (Q03530 whole entry): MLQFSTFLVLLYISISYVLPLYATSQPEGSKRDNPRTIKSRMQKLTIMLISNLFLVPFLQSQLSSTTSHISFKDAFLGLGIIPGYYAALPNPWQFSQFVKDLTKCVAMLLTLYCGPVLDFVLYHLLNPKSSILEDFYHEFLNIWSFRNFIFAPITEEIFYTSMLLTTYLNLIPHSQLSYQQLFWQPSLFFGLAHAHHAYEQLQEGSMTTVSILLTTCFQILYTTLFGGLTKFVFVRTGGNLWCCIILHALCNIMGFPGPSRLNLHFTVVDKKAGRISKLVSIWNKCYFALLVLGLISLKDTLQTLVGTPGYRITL

[6] = mammalian cell cytotoxicity, dose response, cytotoxicity control, plate reader, cherry-pick samples (AID 504397); format: functional, cell-based

IC50 [1]: 50.5 µM (active)
SMILES: Cc1ccc(-n2c(N)c(C(=O)Nc3ccccc3F)sc2=S)cc1C

SMILES: CC(=O)NC(N=C(S)Nc1ccc(N=Nc2ccccc2)cc1)C(Cl)(Cl)Cl (stereo not drawn)
IC50 (CHO-K1): > 66.2 µM (inactive)
IC50 [2]: > 5.53 µM (active)
IC50 [3]: 42.3 µM (inactive)
IC50 [4]: 6.68 µM (active)

EC50 [5]: 10 µM (active)
SMILES: CC(C)(C)CCN1CCC[C@@H](NC(=O)COc2ccccc2Cl)C1

SMILES: Nc1nnnn1/N=C/c1cccc(OCc2ccccc2Cl)c1
AC50 (CAAX prenyl protease 2): 2.78 µM (active)
AC50 [6]: > 350 µM (inactive)
